Measurements published in patent publication EP3046573B1, “AMYLIN ANALOGUES” (Zealand Pharma A/S, priority 2013, dated 2015).
Numbered stars: 1 amine (or outer) side, 2 acyl side, 3 side chain; on linkers, the order of the positions; unused ones are H or OH. Bridge positions count the residues as written; N and C are the ends. Square brackets hold non-standard residues; d marks the D form. Peptide text beside a SMILES is read from it. * marks the point of attachment. C20 diacid = O=C(O)CCCCCCCCCCCCCCCCCCC(=O)*; γGlu = O=C(O)[C@H](CCC(=O)[*:2])N[*:1]; NMeI = CC[C@H](C)[C@H](NC)C(=O)O; Sar = CNCC(=O)O

How the values were obtained:
[1] = Solubility assessment (turbidity absorbance at 325 nm); type: physicochemical; conditions: stock 2 mg/ml diluted 1:1, ambient temperature (typically 25°C), n=1; for Solubility, Acetate buffer pH 4: 100 mM acetate buffer pH 4.0; for Solubility, Acetate buffer pH 5: 100 mM acetate buffer pH 5.0; for Solubility, Histidine buffer pH 6: 100 mM histidine buffer pH 6.0; for Solubility, Histidine buffer pH 7: 100 mM histidine buffer pH 7.0; for Solubility, Phosphate buffer pH 6: 100 mM phosphate buffer pH 6.0; for Solubility, Phosphate buffer pH 7: 100 mM phosphate buffer pH 7.0; for Solubility, Phosphate buffer pH 7.5: 100 mM phosphate buffer pH7.5
Outline: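 Turbidity read as absorbance at 325 nm (also 280 nm), single samples at ambient temperature (typically 25°C); ≤ 0.02 units counts as ≥ 1 mg/ml soluble. Samples made by 1:1 dilution of a 2 mg/ml acidic stock into 100 mM acetate, histidine or phosphate buffers, pH 4.0–7.5.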

[2] = molecular target: T1, human calcitonin receptor (hCTR2) (Homo sapiens, UniProt P30988); assay: hCTR2 assay: induction of cAMP (AlphaScreen cAMP Assay kit) in COS7 cells expressing hCTR2; type: cell-based
T1 construct: expressed in transfected cells
T1 sequence (P30988 25-474): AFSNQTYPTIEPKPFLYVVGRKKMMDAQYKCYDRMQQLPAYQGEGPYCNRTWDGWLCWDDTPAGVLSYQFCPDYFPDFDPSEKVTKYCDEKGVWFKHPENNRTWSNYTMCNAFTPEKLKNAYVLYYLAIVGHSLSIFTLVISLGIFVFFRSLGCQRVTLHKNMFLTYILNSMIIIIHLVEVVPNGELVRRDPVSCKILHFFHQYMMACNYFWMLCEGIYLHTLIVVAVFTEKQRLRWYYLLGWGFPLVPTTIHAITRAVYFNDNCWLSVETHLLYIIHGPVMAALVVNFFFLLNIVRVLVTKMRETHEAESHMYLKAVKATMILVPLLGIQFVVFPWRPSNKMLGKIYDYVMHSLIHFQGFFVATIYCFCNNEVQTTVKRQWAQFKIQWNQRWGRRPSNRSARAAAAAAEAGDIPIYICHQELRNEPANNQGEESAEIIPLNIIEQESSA
Outline: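 Peptide-induced cAMP in hCTR2-expressing COS7 cells, 15 min at 37° C with phosphodiesterase inhibitor IBMX (100 µM), detected by AlphaScreen; potency from 4PL curves.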

## CC[C@H](C)[C@@H](C(=O)N[C@@H](CC(C)C)C(=O)N[C@@H](CO)C(=O)N[C@@H](CO)C(=O)N[C@H](C(=O)N[C@@H](CC(N)=O)C(=O)N[C@H](C(=O)NCC(=O)N[C@@H](CO)C(=O)N[C@@H](CC(N)=O)C(=O)N[C@H](C(=O)N1CCC[C@H]1C(N)=O)[C@@H](C)O)C(C)C)[C@@H](C)O)N(C)C(=O)[C@H](C)NC(=O)CN(C)C(=O)[C@H](Cc1ccccc1)NC(=O)[C@H](CC(N)=O)NC(=O)[C@H](CC(N)=O)NC(=O)[C@H](CO)NC(=O)[C@H](CO)NC(=O)[C@H](CCCNC(=N)N)NC(=O)[C@H](Cc1c[nH]cn1)NC(=O)[C@H](CC(C)C)NC(=O)[C@H](Cc1ccccc1)NC(=O)[C@H](CCC(=O)O)NC(=O)[C@H](C)NC(=O)[C@H](CC(C)C)NC(=O)[C@H](CCCNC(=N)N)NC(=O)[C@H](CCC(N)=O)NC(=O)[C@@H](NC(=O)[C@H](C)NC(=O)[C@@H]1CSSC[C@H](NC(=O)[C@H](CCCCN)NC(=O)[C@H](CCCNC(=N)N)NC(=O)CC[C@H](NC(=O)CCCCCCCCCCCCCCCCCCC(=O)O)C(=O)O)C(=O)N[C@@H](CC(N)=O)C(=O)N[C@@H]([C@@H](C)O)C(=O)N[C@@H](C)C(=O)N[C@@H]([C@@H](C)O)C(=O)N1)[C@@H](C)O [Compound 86, [19CD]-isoGlu-RKC()NTATC()ATQRLAEFLHRSSNNF-Gly(Me)-A-Ile(Me)-LSSTNVGSNTP-NH2] ({C20 diacid-γGlu}-RKCNTATCATQRLAEFLHRSSNNF[Sar]A[NMeI]LSSTNVGSNTP-NH2; disulfide 3-8)
[1]
  Solubility, Acetate buffer pH 4: SS (SS indicates solubility ≥ 1mg/ml)
  Solubility, Acetate buffer pH 5: SS (SS indicates solubility ≥ 1mg/ml)
  Solubility, Histidine buffer pH 6: SS (SS indicates solubility ≥ 1mg/ml)
  Solubility, Histidine buffer pH 7: SS (SS indicates solubility ≥ 1mg/ml)
  Solubility, Phosphate buffer pH 6: SS (SS indicates solubility ≥ 1mg/ml)
  Solubility, Phosphate buffer pH 7: SS (SS indicates solubility ≥ 1mg/ml)
  Solubility, Phosphate buffer pH 7.5: SS (SS indicates solubility ≥ 1mg/ml)
[2]
  EC50: 0.065 nM

## CC[C@H](C)[C@@H](C(=O)N[C@@H](CC(C)C)C(=O)N[C@@H](CO)C(=O)N[C@@H](CO)C(=O)N[C@H](C(=O)N[C@@H](CC(N)=O)C(=O)N[C@H](C(=O)NCC(=O)N[C@@H](CO)C(=O)N[C@@H](CC(N)=O)C(=O)N[C@H](C(=O)N1CCC[C@H]1C(N)=O)[C@@H](C)O)C(C)C)[C@@H](C)O)N(C)C(=O)[C@H](C)NC(=O)CN(C)C(=O)[C@H](Cc1ccccc1)NC(=O)[C@H](CC(N)=O)NC(=O)[C@H](CC(N)=O)NC(=O)[C@H](CO)NC(=O)[C@H](CO)NC(=O)[C@H](CCCNC(=N)N)NC(=O)[C@H](Cc1c[nH]cn1)NC(=O)[C@H](CC(C)C)NC(=O)[C@H](Cc1ccccc1)NC(=O)[C@H](CCC(=O)O)NC(=O)[C@H](C)NC(=O)[C@H](CC(C)C)NC(=O)[C@H](CCCNC(=N)N)NC(=O)[C@H](CCC(N)=O)NC(=O)[C@@H](NC(=O)[C@H](C)NC(=O)[C@@H]1CSSC[C@H](NC(=O)[C@H](CCCCN)NC(=O)[C@H](Cc2c[nH]cn2)NC(=O)CC[C@H](NC(=O)CCCCCCCCCCCCCCCCCCC(=O)O)C(=O)O)C(=O)N[C@@H](CC(N)=O)C(=O)N[C@@H]([C@@H](C)O)C(=O)N[C@@H](C)C(=O)N[C@@H]([C@@H](C)O)C(=O)N1)[C@@H](C)O [Compound 88, [19CD]-isoGlu-HKC()NTATC()ATQRLAEFLHRSSNNF-Gly(Me)-A-Ile(Me)-LSSTNVGSNTP-NH2] ({C20 diacid-γGlu}-HKCNTATCATQRLAEFLHRSSNNF[Sar]A[NMeI]LSSTNVGSNTP-NH2; disulfide 3-8)
[1]
  Solubility, Acetate buffer pH 4: SS (SS indicates solubility ≥ 1mg/ml)
  Solubility, Acetate buffer pH 5: SS (SS indicates solubility ≥ 1mg/ml)
  Solubility, Histidine buffer pH 6: SS (SS indicates solubility ≥ 1mg/ml)
  Solubility, Histidine buffer pH 7: SS (SS indicates solubility ≥ 1mg/ml)
  Solubility, Phosphate buffer pH 6: SS (SS indicates solubility ≥ 1mg/ml)
  Solubility, Phosphate buffer pH 7: SS (SS indicates solubility ≥ 1mg/ml)
  Solubility, Phosphate buffer pH 7.5: SS (SS indicates solubility ≥ 1mg/ml)
[2]
  EC50: 0.069 nM
